Series [1] deals with NIH3T3. Nature of the series: (§1) Inhibition of CAMK-II in mouse NIH3T3 cells using autocamtide-2 as substrate […]. It counts as cell-based.
The test system of series [2] is NIH3T3. The experiment in a line: Induction of cell cycle arrest in mouse NIH3T3 cells by propidium iodide staining based flow cytometry analysis. It counts as toxicity. A general note: A flow cytometer gives signals particle by particle.
Series [3] deals with NIH3T3. Nature of the series: Inhibition of CAMK-II in mouse NIH3T3 cells assessed as decrease in cell number by MTT assay. It counts as cell-based. (Tetrazolium assays rely on reduction of a dye to a coloured formazan, in cell work by metabolically active cells.)
In series [4] the test system is NIH3T3. The experiment in a line: Cytotoxicity against EGF stimulated mouse NIH3T3 cells assessed as growth inhibition incubated for 72 hrs by MTT assay. It is filed as functional, cell-based. The settings on record: NIH3T3, 72 h.
Series [5] in a line: as §1. It is filed as cell-based.
The test system of series [6] is NIH3T3. The experiment in a line: Induction of cell cycle arrest in mouse NIH3T3 cells assessed as accumulation of cells at G1 phase at 10 uM incubated for 2 to 3 day by propidium iodide staining based flow cytometry analysis (reference value: 54 %). It is filed as toxicity. The settings on record: nih3t3, 10 µM, time 2-3 day.
The subject of series [7] is NIH3T3. The experiment in a line: Cytotoxicity against serum stimulated mouse NIH3T3 cells assessed as inhibition of cell growth incubated for 72 hrs by MTT assay. The settings on record: NIH3T3, 72 h. It is filed as functional, cell-based.
The subject of series [8] is NIH3T3. Nature of the series: Cytotoxicity against EGF stimulated mouse NIH3T3 cells assessed as growth inhibition at 5 to 25 uM incubated for 72 hrs by MTT assay. It is filed as functional, cell-based. The settings on record: dose 5-25 µM.
Series [9] has as its system NIH3T3. The experiment in a line: Inhibition of CAMK-II in mouse NIH3T3 cells assessed as accumulation of granules in presence of fetal bovine serum by phase contrast microscopy analysis. It is filed as cell-based.
The subject of series [10] is NIH3T3. The experiment in a line: Cytotoxicity against PDGF-BB stimulated mouse NIH3T3 cells assessed as growth inhibition at 5 to 25 uM incubated for 72 hrs by MTT assay. It counts as functional, cell-based. The settings on record: dose 5-25 µM.
Series [11] concerns NIH3T3. Nature of the series: Induction of cell cycle arrest in mouse NIH3T3 cells assessed as accumulation of cells at S phase at 10 uM incubated for 44 hrs followed by compound washout for 22 hrs by propidium iodide staining based flow cytometry analysis. It counts as toxicity. The settings on record: nih3t3, 44 h.
Series [12] relates to NIH3T3. Nature of the series: Cytotoxicity against serum stimulated mouse NIH3T3 cells assessed as decrease in cell number at 2 uM incubated for 72 hrs by MTT assay relative to control. It counts as functional. Set-up: scale not given: the % may be the effect or the level left.
Series [13] has as its system NIH3T3. The experiment in a line: Induction of cell cycle arrest in mouse NIH3T3 cells assessed as accumulation of cells at G1 phase at 24 uM incubated for 3 days by propidium iodide staining based flow cytometry analysis. It is filed as toxicity. The settings on record: nih3t3, 72 h, time 3 day.
Series [14] deals with NIH3T3. Nature of the series: Cytotoxicity against IGF-1 stimulated mouse NIH3T3 cells assessed as growth inhibition incubated for 72 hrs by MTT assay. It is filed as functional, cell-based. The settings on record: NIH3T3, 72 h.
In series [15] the test system is NIH3T3. The experiment in a line: Cytotoxicity against PDGF-BB stimulated mouse NIH3T3 cells assessed as growth inhibition incubated for 72 hrs by MTT assay. It counts as functional, cell-based. The settings on record: NIH3T3, 72 h.
Series [16] deals with NIH3T3. Nature of the series: Inhibition of CAMK-II in mouse NIH3T3 cells assessed as decrease in cell count at 24 uM incubated for 2 to 3 days in presence of fetal bovine serum by phase contrast microscopy analysis. It is filed as cell-based. The settings on record: time 2-3 day.
Series [17] concerns NIH3T3. The experiment in a line: Inhibition of CAMK-II in mouse NIH3T3 cells assessed as inhibition of cell growth at 4 to 8 uM incubated for 3 days by MTT assay. It counts as cell-based. The settings on record: dose 4-8 µM, time 3.0 day.
Series [18] relates to NIH3T3. The experiment in a line: Induction of cell cycle arrest in mouse NIH3T3 cells assessed as decreased accumulation of cells at G2 phase at 10 uM incubated for 1 to 3 days by propidium iodide staining based flow cytometry analysis. It is filed as toxicity. The settings on record: nih3t3, 10 µM, time 1-3 day.
In series [19] the test system is NIH3T3. Nature of the series: Induction of cell cycle arrest in mouse NIH3T3 cells assessed as accumulation of hypodiploid cells at 24 uM incubated for 3 days by propidium iodide staining based flow cytometry analysis. It is filed as toxicity. The settings on record: nih3t3, 72 h, time 3 day.
For series [20], the system named is NIH3T3. Nature of the series: Inhibition of CAMK-II in mouse NIH3T3 cells assessed as decrease in cell number at 16 to 24 uM incubated for 3 days by MTT assay. The settings on record: dose 16-24 µM, time 3.0 day. It is filed as cell-based.
The subject of series [21] is NIH3T3. Nature of the series: Cytotoxicity against FGF stimulated mouse NIH3T3 cells assessed as growth inhibition at 5 to 25 uM incubated for 72 hrs by MTT assay. It is filed as functional, cell-based. The settings on record: dose 5-25 µM.
Series [22] concerns NIH3T3. The experiment in a line: Inhibition of CAMK-II in mouse NIH3T3 cells assessed as cell growth rate after compound rinsing at 4 to 16 uM incubated for 6 to 48 hrs by MTT assay. The settings on record: dose 4-16 µM, time 6-48 hrs. It counts as cell-based.
The subject of series [23] is NIH3T3. The experiment in a line: Inhibition of CAMK-II in mouse NIH3T3 cells assessed as morphological changes at 10 to 24 uM incubated for 1 day in presence of fetal bovine serum by phase contrast microscopy analysis. It counts as cell-based. The settings on record: dose 10-24 µM.
Series [24] concerns NIH3T3. The experiment in a line: Induction of cell cycle arrest in mouse NIH3T3 cells assessed as decreased accumulation of cells at S phase at 10 uM incubated for 1 to 3 days by propidium iodide staining based flow cytometry analysis. It counts as toxicity. The settings on record: nih3t3, 10 µM, time 1-3 day.
Series [25] relates to NIH3T3. The experiment in a line: Cytotoxicity against FGF stimulated mouse NIH3T3 cells assessed as growth inhibition incubated for 72 hrs by MTT assay. It is filed as functional, cell-based. The settings on record: NIH3T3, 72 h.
Series [26] is described as follows: Inhibition of CAMK-II in mouse NIH3T3 cells assessed as growth inhibition incubated for 2 to 3 days by phase contrast microscopy analysis. It is filed as cell-based.
The subject of series [27] is NIH3T3. The experiment in a line: Induction of apoptosis in mouse NIH3T3 cells assessed as decreased cell viability in presence of terminal transferase and Fl-dUTP by TUNEL staining based fluorescence microscopy analysis. It counts as toxicity. The settings on record: dose lower 10 µM, time lower 2 day, dose upper 24 µM, time upper 3 day.
Series [28] has as its system NIH3T3. Nature of the series: Cytotoxicity against IGF-1 stimulated mouse NIH3T3 cells assessed as growth inhibition at 5 to 25 uM incubated for 72 hrs by MTT assay. It is filed as functional, cell-based. The settings on record: dose 5-25 µM.
Series [29] concerns NIH3T3. The experiment in a line: Cytotoxicity against FGF stimulated mouse NIH3T3 cells assessed as decrease in cell number at 2 uM incubated for 72 hrs by MTT assay relative to control. It counts as functional. More on the design: scale not given: the % may be the effect or the level left.
For series [30], the system named is NIH3T3. Nature of the series: Induction of cell cycle arrest in mouse NIH3T3 cells assessed as accumulation of cells at G1 phase at 10 uM incubated for 1 day by propidium iodide staining based flow cytometry analysis (reference value: 54 %). The settings on record: nih3t3, 24 h. It is filed as toxicity.
Series [31] relates to NIH3T3. The experiment in a line: Induction of cell cycle arrest in mouse NIH3T3 cells assessed as accumulation of cells at G2/M phase at 10 uM incubated for 44 hrs followed by compound washout for 22 hrs by propidium iodide staining based flow cytometry analysis. It counts as toxicity. The settings on record: nih3t3, 44 h.

pIC50: −log10 of the molar value. Calls of active or inactive are those of the source. No cut-off for these calls is given here.

One may read the pIC50 as the negative decadic logarithm of the IC50, by convention in mol/L.

On to `COc1ccc(S(=O)(=O)Nc2ccccc2CN(C)C/C=C/c2ccc(Cl)cc2)cc1`, for which the inhibition entry with NIH3T3 [1] and in the series on NIH3T3 [3] was “inactive” each time. Further, the Activity entry in the series with NIH3T3 [2] is on record as “Not Active”.

In the case of `COc1ccc(S(=O)(=O)N(CCO)c2ccccc2CN(C)C/C=C/c2ccc(Cl)cc2)cc1`, the pIC50 in the series with NIH3T3 [4] was 5.22; in [5], 4.92; in the series with NIH3T3 [7], 4.92; in the series with NIH3T3 [14] it was 5.22; with NIH3T3 [15] it was 5.22; with NIH3T3 [25], 5.22. For the same molecule, the pIC50 in [26] is 6.00. Besides, the Activity with NIH3T3 [6] was 95%; in the series on NIH3T3 [11] it was “Non-Toxic”; in the series on NIH3T3 [12] it was 4%; in the series on NIH3T3 [13] it was “Toxic”; in the series on NIH3T3 [18], “Toxic”; in the series on NIH3T3 [19], “Toxic”. Also, the Activity entry with NIH3T3 [24] is “Toxic”; with NIH3T3 [27], “Dose-Dependent Effect and Tde”; with NIH3T3 [29] it was 35%; in the series on NIH3T3 [30], 79%; in the series on NIH3T3 [31] it was “Non-Toxic”. Besides, the outcome in the series on NIH3T3 [8], in the series on NIH3T3 [10], in the series on NIH3T3 [21] and in the series on NIH3T3 [28] was Active. The inhibition entry in the series with NIH3T3 [9], in the series on NIH3T3 [16], with NIH3T3 [17], in the series on NIH3T3 [3], in the series with NIH3T3 [20] and in the series on NIH3T3 [23] was “Active” throughout. Moreover, the inhibition result in the series with NIH3T3 [22] is “inactive”.

The record behind these values is ChEMBL document CHEMBL5653633, “G1 cell cycle arrest and apoptosis are induced in NIH 3T3 cells by KN-93, an inhibitor of CaMK-II (the multifunctional Ca2+/CaM kinase)” (Cell Growth Differ, 1995).
